B1: urinastatin (protein, UniProt P02760 206-352, looked up)
Inter-alpha-trypsin inhibitor …: AVLPQEEEGSGGGQLVTEVTKKEDSCQLGYSAGPCMGMTSRYFYNGTSMACETFQYGGCMGNGNNFVTEKECLQTCRTVAACNLPIVRGPCRAFIQLWAFDAVKGKCVLFPYGGCQGNGNKFYSEKECREYCGVPGDGDEELLRFSN
modifications: Inter-alpha-trypsin inhibitor light chain
notes: glycoprotein of less than about 67 kD purified from human urine

Key:
[1] = cited from earlier work; for time required for the number of uterine contractions (UC) to decrease to less than 1 per 30 minutes: 24th-35th weeks of pregnancy, tocolysis index 3-4, no PROM
[2] = Example 2 clinical comparison of regimens in 168 patients with imminent premature delivery; format: in vivo, human
Procedure: 168 patients in their 24th to 35 week of pregnancy were diagnosed with imminent premature delivery. The diagnosis of imminent premature delivery was based on a tocolysis index of 2 or greater. Factors of cervical dilation, ruptured membranes, uterine activity and vaginal bleeding were considered for the tocolysis index. The index is the sum of these points.
A number of regimens were compared. Group 1 received ritodrine intravenous infusion at 50-300 μg per day. Groups 2 and 3 were given daily urinastatin suppositories containing 5000 units and 1000 units, respectively. Group 4 received IV ritodrine at 50-300 μg per day and one 1000 unit urinastatin suppository per day. Group 5 received IV ritodrine at 50-300 μg per day, one 1000 unit urinastatin suppository per day, and cephalosporin. The patients were treated until they delivered.
The tocolysis index immediately before the start of treatment varied from 2-8. Elastase levels obtained from specimen of endocervical secretions were determined at admission to the study. "Hours to Neg UA", or the time until the number of uterine contractions in 30 minutes decreased to one or less, was reported. "Recur UA", or the proportion of women experiencing recurrence of at least one uterine contraction every 30 minutes after therapy lasting 4 days or longer was discontinued also was observed. "EGA Toco" is the estimated gestational age at the beginning of therapy. "EGA Del" is the estimated gestational age at delivery. The "interval" is the number of weeks between EGA Toco and EGA Del. "PTD<37 Wks" is the number of preterm births before 37 weeks. "PTD<34 Wks" is the number of preterm births before 34 weeks, or seriously premature infants.

granulocyte elastase = conditions: patients treated with urinastatin (groups B, C and D); cited from earlier work

Row | Molecule | patients with recurrence of UC after therapy was discontinued ([1]; therapy discontinued when UC had been depressed for 4 days) | time required for the number of uterine contractions (UC) to decrease to less than 1 per 30 minutes ([1]; women) | women with premature deliveries ([1]; women, 24th-35th weeks, tocolysis index 3-4) [%] | preterm deliveries of less than 34 wk, share of all deliveries ([2]; PTD<34 Wks) | preterm deliveries of less than 37 wk, share of all deliveries ([2]; PTD<37 Wks) [%] | rate of recurrence of uterine activity ([2]; in spite of continuous administration of the drug) | Hours to Neg UA: time until uterine contractions in 30 minutes decreased to one or less ([2]; study average 3.1 hr) [h] | elastase in vaginal secretions (granulocyte elastase) | premature deliveries (number of patients) ([1]; groups B and D had 9 and 8 patients, group C 14)
1 | CC(NCCc1ccc(O)cc1)C(O)c1ccc(O)cc1 (stereo not shown) [ritodrine] | Approximately 60% | about an hour | 25 | approximately 21% | ~42 | over 30% | 1.4 | – | –
2 | B1 | – | about 6 hours | – | – | – | – | – | decreased | no premature deliveries

From patent publication US5650394A, “Use of urinastatin-like compounds to prevent premature delivery” (Adeza Biomedical, priority 1993, dated 1997)
